Like-named read-outs stand apart in the source and are kept apart here. Each block holds one compound with its values, some of them ahead of it.
Columns and labels:
[1] = test system: K. pneumoniae NCTC 13438 (KPC3); experiment: Synergistic broth micro-dilution MIC; assay type: cell-based, Klebsiella pneumoniae
E. coli BAA-200 (SHV-4) = experiment: MIC of Piperacillin with inhibitor, ESBL isolates; assay type: cell-based, Escherichia coli
[2] = test system: E. cloacae 01 MGH 049 (KPC2, AmpC); experiment: Synergistic broth micro-dilution MIC; assay type: cell-based
[3] = test system: KPC-2 producing K. pneumoniae (ATCC BAA-1705); experiment: Synergistic broth micro-dilution MIC (checkerboard); assay type: cell-based, Klebsiella pneumoniae
E. coli BAA-199 (SHV-3) = experiment: MIC of Piperacillin with inhibitor, ESBL isolates; assay type: cell-based, Escherichia coli
E. coli Ecoli233 (KPC3) [4] = experiment: Synergistic broth micro-dilution MIC; assay type: cell-based, Escherichia coli
[5] = test system: P. mirabilis BAA-663 (TEM-89); experiment: MIC of Piperacillin with inhibitor, ESBL isolates; assay type: cell-based
[6] = test system: K. pneumoniae 700603 (SHV-18); experiment: MIC of Piperacillin with inhibitor, ESBL isolates; assay type: cell-based, Klebsiella pneumoniae
E. coli BAA-201 (TEM-3) = experiment: MIC of Piperacillin with inhibitor, ESBL isolates; assay type: cell-based
[7] = test system: K. pneumoniae UMM3 (KPC2); experiment: Synergistic broth micro-dilution MIC; assay type: cell-based, Klebsiella pneumoniae
E. coli BAA-197 (TEM-12) = experiment: MIC of Piperacillin with inhibitor, ESBL isolates; assay type: cell-based, Escherichia coli
E. coli BAA-198 (TEM-26) = experiment: MIC of Piperacillin with inhibitor, ESBL isolates; assay type: cell-based, Escherichia coli
[8] = test system: KPC2 K. pneumoniae ATCC BAA 1705; experiment: Mice systemic infection model; assay type: in vivo; details: Klebsiella pneumoniae, BAA1705, mice, sub-cutaneous
Description: Female Swiss Albino mice, weighing 18-22 g were used for all studies. For each dose group, 5 or 6 mice were included. Study protocols were reviewed and approved by Institutional Animal Ethical Committee, Orchid Research Laboratories Limited. Mice were housed in individually ventilated cages provided with food and water ad libitum, throughout the study period. From overnight culture in Brain-Heart Infusion agar medium, challenge inoculum with required bacterial density was prepared in normal saline containing Hog gastric mucin. In studies involved with doripenem, washed bacterial cells was used. Each mouse was infected […] inoculum by intra-peritoneal injection.
Infected mice were dosed sub-cutaneously, with drug preparations at three different time points post-infection.
Imipenem with BLI combinations: Increasing concentrations of Imipenem as single agent or in combination with fixed concentration of BLIs were used to dose infected mice, sub-cutaneously. In this experiment Imipenem was always administered along with cilastatin. Doripenem with BLI combinations: Increasing concentrations of doripenem as single agent or in combination with fixed concentration of BLIs were used to dose infected mice, sub-cutaneously.
Survival of the treated mice were monitored twice a day, up to 7 days post-infection. Efficacy dose 50 (ED50) was calculated by Reed and Muench method (Reed, L. J.; Muench, H. “A simple method of estimating fifty percent endpoints”. The American Journal of Hygiene, 1938, 27: 493-497.).

[9] = test system: KPC2 K. pneumoniae ATCC BAA 1705; experiment: Neutropenic mice thigh infection model (human adapted model); assay type: in vivo
Description: Female Swiss Albino mice weighing 24-30 g were used for all studies. Study protocols were reviewed and approved by Institutional Animal Ethical Committee, Orchid Research Laboratories Limited. Mice were rendered neutropenic by intra-peritoneal cyclophosphamide injections. Log phase culture in brain heart infusion broth was injected in to mice thighs. Imipenem or Doripenen alone or in combination were administered sub-cutaneously in decreasing fractionated doses every 15 minutes over the period of 5.5 h (Flückiger, U. et al. “Integration of pharmacokinetics and pharmacodynamics of Imipenem in a human-adapted mouse model’. Antimicrobial Agents and Chemother, 1991, 35(9): 1905-1910). The Compound-1 or tazobactam was administered sub-cutaneously as bolus dose at the start of dosing. Efficacy end point was 6 h in Imipenem studies and 8 h in Doripenen studies.
Three experiments were carried out where Doripenen alone or in combination with compound-1 or tazobactam (two experiments) were evaluated. Doripenem 70 mg/kg was administered in fractionated doses over the period of 5.5 h (Fluckiger, U. et al. “Integration of pharmacokinetics and pharmacodynamics of Imipenem in a human-adapted mouse model’. Antimicrobial Agents and Chemother., 1991, 35(9): 1905-1910). Compound-1 or tazobactam was administered as bolus dose at initiation of therapy. Efficacy end point was 8 h after initiation of therapy.

[10] = test system: E. coli ATCC 25922 (β-lac-ve); experiment: Disk zone of inhibition, antibiotic + Compound-1 on same disk (Methodology 2); assay type: cell-based, Escherichia coli; details: CAZ 30 μg or IPM 10 μg disk alone; ATCC 25922
[11] = test system: KPC-3 expressing E. coli (J53 R6206); experiment: Synergistic broth micro-dilution MIC (checkerboard); assay type: cell-based, Escherichia coli; details: no BLI
E. coli Ecoli233 (KPC3) [12] = experiment: Disk zone of inhibition, antibiotic + Compound-1 on same disk (Methodology 2); assay type: cell-based, Escherichia coli; details: CAZ 30 μg or IPM 10 μg disk alone
From the text: (§1) In this experiment, Compound-1 is used as a diagnostic reagent for the detection of β-lactamases belonging to the families KPC & ESBL (e.g., SHV18) producing Enterobacteriaceae. A simple set of absorbent paper disks impregnated with antibiotic on agar medium is used for the detection.
(§2) • 0.5 McFarland of the test organism was inoculated at 1:10 dilution on Muller • Hinton Agar plates • Test organisms: Klebsiella pneumoniae (K.p) ATCC BAA-1705, Klebsiella pneumoniae ATCC 700603, Escherichia coli (E.c) Ecoli233 • Carbapenem (e.g., Imipenem [IPM] 10 μg) and cephalosporin (e.g., Ceftazidime [CAZ] 30 μg) paper disks (7 mm) were placed on the inoculated agar plates • Compound-1 (60 μg) disk was placed at a distance of 7 & 10 mm from the carbapenem and cephalosporin disks. • The presence of expressed carbapenemases or ESBLs was measured as the expansion of Imipenem or Ceftazidime's inhibition zones due to synergy in the presence of Compound-1.
(§3) The methodology remains the same as Methodology 1 except the following change • Compound-1 (60 μg) was added on the same disk in combination with a carbapenem (e.g., Imipenem 10 μg) or cephalosporin (e.g., Ceftazidime 30 μg) and placed on the inoculated agar plate. • The presence of the expressed carbapenemases or ESBLs was measured as an increase in Imipenem or Ceftazidime's zone diameter in combination with Compound-1 compared to antibiotic alone. Results

[13] = test system: K. pneumoniae ATCC 700603 (SHV18); experiment: as above; assay type: cell-based, Klebsiella pneumoniae; details: CAZ 30 μg or IPM 10 μg disk alone
From the text: as §1
as §2, with “Compound-1. Results:” for “Compound-1.”
as §3

[14] = test system: K. pneumoniae ATCC BAA-1705 (KPC2); experiment: as above; assay type: cell-based, Klebsiella pneumoniae; details: CAZ 30 μg or IPM 10 μg disk alone
From the text: as §1, §2, §3

MIC of Imipenem in combination with BLI ([1]; BLI at 4 μg/mL): 64 µg/mL
MIC of Piperacillin with inhibitor (E. coli BAA-200 (SHV-4); inhibitor at 1 μg/mL): >128 µg/mL
MIC of Piperacillin with inhibitor (E. coli BAA-200 (SHV-4); inhibitor at 2 μg/mL): >128 µg/mL
MIC of Piperacillin with inhibitor (E. coli BAA-200 (SHV-4); inhibitor at 4 μg/mL): >128 µg/mL
MIC of Imipenem in combination with BLI ([2]; BLI at 4 μg/mL): 8 µg/mL
MIC of Imipenem in combination with BLI ([3]; BLI at 4 μg/mL, ATCC BAA-1705): 8 µg/mL
MIC of Imipenem in combination with BLI ([3]; BLI at 16 μg/mL, ATCC BAA-1705): 8 µg/mL
MIC of Piperacillin with inhibitor (E. coli BAA-199 (SHV-3); inhibitor at 1 μg/mL): >128 µg/mL
MIC of Piperacillin with inhibitor (E. coli BAA-199 (SHV-3); inhibitor at 2 μg/mL): >128 µg/mL
MIC of Piperacillin with inhibitor (E. coli BAA-199 (SHV-3); inhibitor at 4 μg/mL): >128 µg/mL
MIC of Imipenem in combination with BLI (E. coli Ecoli233 (KPC3) [4]; BLI at 4 μg/mL): 16 µg/mL
MIC of Imipenem in combination with BLI (E. coli Ecoli233 (KPC3) [4]; BLI at 16 μg/mL): 16 µg/mL
MIC of Piperacillin with inhibitor ([5]; inhibitor at 1 μg/mL): 64 µg/mL
MIC of Piperacillin with inhibitor ([5]; inhibitor at 2 μg/mL): >128 µg/mL
MIC of Piperacillin with inhibitor ([5]; inhibitor at 4 μg/mL): >128 µg/mL
MIC of Piperacillin with inhibitor ([6]; inhibitor at 1 μg/mL): 16 µg/mL
MIC of Piperacillin with inhibitor ([6]; inhibitor at 2 μg/mL): 32 µg/mL
MIC of Piperacillin with inhibitor ([6]; inhibitor at 4 μg/mL): 16 µg/mL
MIC of Piperacillin with inhibitor (E. coli BAA-201 (TEM-3); inhibitor at 1 μg/mL): 4 µg/mL
MIC of Piperacillin with inhibitor (E. coli BAA-201 (TEM-3); inhibitor at 2 μg/mL): 4 µg/mL
MIC of Piperacillin with inhibitor (E. coli BAA-201 (TEM-3); inhibitor at 4 μg/mL): 4 µg/mL
MIC of Imipenem in combination with BLI ([7]; BLI at 4 μg/mL): 8 µg/mL
MIC of Piperacillin with inhibitor (E. coli BAA-197 (TEM-12); inhibitor at 1 μg/mL): 4 µg/mL
MIC of Piperacillin with inhibitor (E. coli BAA-197 (TEM-12); inhibitor at 2 μg/mL): 8 µg/mL
MIC of Piperacillin with inhibitor (E. coli BAA-197 (TEM-12); inhibitor at 4 μg/mL): 4 µg/mL
MIC of Piperacillin with inhibitor (E. coli BAA-198 (TEM-26); inhibitor at 1 μg/mL): 4 µg/mL
MIC of Piperacillin with inhibitor (E. coli BAA-198 (TEM-26); inhibitor at 2 μg/mL): 4 µg/mL
MIC of Piperacillin with inhibitor (E. coli BAA-198 (TEM-26); inhibitor at 4 μg/mL): 4 µg/mL
Structure (SMILES): C[C@]1(Cn2ccnc2)[C@H](C(=O)O)N2C(=O)C[C@H]2S1(=O)=O [Compound-M, (2S,3S,5R)-3-(imidazol-1-ylmethyl)-3-methyl-4,4,7-trioxo-4-thia-1-aza-bicyclo[3.2.0]heptane-2-carboxylic acid]
Activity with imipenem against the KPC (2 & 3) producing strains, in words ([3]; summary of Table 2, all five strains): only moderately active

Structure (SMILES): C[C@@H](O)[C@H]1C(=O)N2C(C(=O)O)=C(S[C@@H]3CN[C@H](CNS(N)(=O)=O)C3)[C@H](C)[C@H]12 [Doripenem]
ED50 ([8]; read-out: ED50 of Doripenem alone): 14.1 mg/kg
Bacterial load (range), Doripenem alone ([9]; Doripenem 70 mg/kg fractionated over 5.5 h, end point 8 h): 5.4E+06-2.6E+07 CFU/thigh

Structure (SMILES): C[C@@H](O)[C@H]1C(=O)N2C(C(=O)O)=C(SCCN=CN)C[C@H]12 [Imipenem]
MIC ([1]; Klebsiella pneumoniae, NCTC13438, no BLI, read-out: MIC of imipenem, No BLI): 128 µg/mL
Zone of inhibition (ZOI), antibiotic alone [10]: 26.5 mm
MIC ([2]; Enterobacter cloacae, no BLI, read-out: MIC of imipenem, No BLI): 8 µg/mL
MIC of antibiotic alone (no BLI) [11]: 2 to 4 µg/mL
ED50 ([8]; with cilastatin, read-out: ED50 of Imipenem alone): 8.9 mg/kg
MIC ([3]; Klebsiella pneumoniae, ATCCBAA1705, no BLI, ATCC BAA-1705, read-out: MIC of antibiotic alone (no BLI)): 32 to 64 µg/mL
MIC (E. coli Ecoli233 (KPC3) [4]; Escherichia coli, no BLI, read-out: MIC of imipenem, No BLI): 16 µg/mL
Bacterial load, Imipenem alone ([9]; Imipenem 140 mg/kg fractionated over 5.5 h, end point 6 h): 6.8E+06 CFU/thigh
Zone of inhibition (ZOI), antibiotic alone (E. coli Ecoli233 (KPC3) [12]): 14 mm
Zone of inhibition (ZOI), antibiotic alone [13]: 25 mm
MIC ([7]; Klebsiella pneumoniae, no BLI, read-out: MIC of imipenem, No BLI): 8 µg/mL
Zone of inhibition (ZOI), antibiotic alone [14]: 14.5 mm

From patent US10201532B2, “Compounds and their use” (ALLECRA THERAPEUTICS GMBH, priority 2010, dated 2019)
